Consider 18 compounds from patent US20240059703A1 (AMGEN INC., priority 2021, published 2024).

For orientation: IC50 means the concentration that gives 50% inhibition. Read a low IC50 as inhibition by little substance.

One assay concerns the target KRAS G12C (Homo sapiens (Human), UniProt P01116, C118A/G12C). Put plainly: 2 h coupled exchange assay. The format is biochemical. The conditions noted are these: Avg 2 h Coupled exchange IC50, 2 h compound pre-incubation, SOS-mediated nucleotide exchange. As to the method:
The term “2 h coupled exchange assay” or “20 h coupled exchange assay” as used herein refers to the assay described in the Section entitled “BIOLOGICAL EVALUATION.”

Assay [1] relates to MIA PaCa-2 (human pancreatic carcinoma) cells. In words: Cell Viability Assay (CellTiter-Glo), MIA PaCa-2. The format is cell-based. The conditions noted are these: Homo sapiens, MIA PaCa-2, 72 h. The procedure:
Serially-diluted compound or DMSO was added to the cells, and plates were incubated at 37° C., 5% CO2 for 72 h. Cell viability was measured using a CellTiter-Glo® Luminescent Cell Viability Assay kit (Promega) according to the manufacturer's protocol. The luminescence signal of treated samples was normalized to DMSO control, and data were analyzed using a 4-parameter logistic model to calculate IC50 values.
(In general: Cellular ATP, detected with luciferase, serves as a proxy for viable cell number.)

Assay [2] deals with A549 (human lung carcinoma) cells. In words: Cell Viability Assay (CellTiter-Glo), A549. The assay is classed as cell-based. The conditions noted are these: Homo sapiens, A549, 72 h. The procedure, abridged: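 MIA PaCa-2 or A549 cells in RPMI 1640 with 10% FBS were seeded at 1.67E+04 cells/mL and incubated overnight. Serially diluted compound was then added for 72 h at 37° C, 5% CO2. Viability read by CellTiter-Glo luminescence, normalized to DMSO, with IC50 from a 4-parameter logistic fit.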

Sequence of KRAS G12C (P01116 other isoform, or with tags, fused parts or gaps G12C/C118A): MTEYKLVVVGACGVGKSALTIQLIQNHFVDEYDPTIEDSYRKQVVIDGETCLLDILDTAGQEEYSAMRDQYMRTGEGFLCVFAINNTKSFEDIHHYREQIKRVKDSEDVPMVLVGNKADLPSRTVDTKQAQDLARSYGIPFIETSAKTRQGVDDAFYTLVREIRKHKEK

Regarding `C=CC(=O)N1CC2(CCN(c3nc4c(c(-c5cc(O)cc6ccccc56)n3)CCC(C)(C)C4)C2)C1` [Example 1-31, 1-(6-(4-(3-hydroxy-1-naphthalenyl)-7,7-dimethyl-5,6,7,8-tetrahydro-2-quinazolinyl)-2,6-diazaspiro[3.4]octan-2-yl)-2-propen-1-one], the half-inhibitory concentration (IC50) at KRAS G12C was 0.075 µM; in assay [1], over 5 µM; in assay [2], over 5 µM.

Consider `C=CC(=O)N1CC2(CCN(c3nc(-c4ccccc4F)c4ccn(C)c4n3)C2)C1` [Example 1-32], for which the values for the concentration for half-maximal inhibition (IC50) (against KRAS G12C; in assay [1]; in assay [2]) were 250 µM, 17.1 µM and 12.1 µM, respectively.

`C=CC(=O)N1CC2(CCN(c3nc(-c4ccccc4F)c4c(n3)N(C)CCC4)C2)C1` [Example 1-33, 1-(6-(4-(2-fluorophenyl)-8-methyl-5,6,7,8-tetrahydropyrido[2,3-d]pyrimidin-2-yl)-2,6-diazaspiro[3,4]octan-2-yl)-2-propen-1-one]: the 50% inhibitory concentration (IC50) at KRAS G12C came out at 174 µM; in assay [1], 13.4 µM; in assay [2], 13.5 µM.

Consider `C=CC(=O)N1CC2(CCN(c3nc4c(c(-c5c(C(C)C)ccc6[nH]ncc56)n3)CCCC4)C2)C1` [Example 1-35, 1-(6-(4-(5-(2-propanyl)-1H-indazol-4-yl)-5,6,7,8-tetrahydro-2-quinazolinyl)-2,6-diazaspiro[3.4]octan-2-yl)-2-propen-1-one], for which the concentration for half-maximal inhibition (IC50) against KRAS G12C turned out to be 1.55 µM; in assay [1] it was 2.37 µM; in assay [2], 7.12 µM.

`C=CC(=O)N1CC2(CCN(c3nc4c(c(-c5c(C)ccc6[nH]nc(C)c56)n3)CCCC4)C2)C1` [Example 1-36, 1-(6-(4-(3,5-dimethyl-1H-indazol-4-yl)-5,6,7,8-tetrahydro-2-quinazolinyl)-2,6-diazaspiro[3.4]octan-2-yl)-2-propen-1-one]: the IC50 stood at 1.66 µM against KRAS G12C, 3.38 µM in assay [1] and 15.9 µM in assay [2].

As to `C=CC(=O)N1CC2(CCN(c3cn4c(C)cnc4c(-c4c(C)ccc5[nH]ncc45)c3C#N)C2)C1` [Example 1-37, 3-methyl-8-(5-methyl-1H-indazol-4-yl)-6-(2-(2-propenoyl)-2,6-diazaspiro[3.4]octan-6-yl)imidazo[1,2-a]pyridine-7-carbonitrile], the results for the 50% inhibitory concentration (IC50) (against KRAS G12C; in assay [1]; in assay [2]) were 0.402 µM, 2.28 µM and over 25 µM, respectively.

With `C=CC(=O)N1CC2(CCN(c3cn4cc(-c5ccccc5)nc4c(-c4c(C)ccc5[nH]ncc45)c3C#N)C2)C1` [Example 1-38, 8-(5-methyl-1H-indazol-4-yl)-2-phenyl-6-(2-(2-propenoyl)-2,6-diazaspiro[3.4]octan-6-yl)imidazo[1,2-al]yridine-7-carbonitrile], the results for the IC50 (against KRAS G12C; in assay [1]; in assay [2]) were 0.103 µM, 0.294 µM and 6.25 µM, respectively.

In the case of `C=CC(=O)N1CC2(C1)CN(c1nc3c(F)cccc3c(-c3c(C)ccc4[nH]ncc34)c1C#N)CC2(F)F` [Example 1-39, 2-(8,8-difluoro-2-(2-propenoyl)-2,6-diazaspiro[3.4]octan-6-yl)-8-fluoro-4-(5-methyl-1H-indazol-4-yl)-3-quinolinecarbonitrile], the concentration for half-maximal inhibition (IC50) worked out at 0.757 µM against KRAS G12C, 2.75 µM in assay [1] and 6.25 µM in assay [2].

With `C=CC(=O)N1CC2(CCN(c3nc(-c4c(C)ccc5[nH]ncc45)c4ccc(OC)cc4n3)C2)C1` [Example 1-41, 1-(6-(7-methoxy-4-(5-methyl-1H-indazol-4-yl)-2-quinazolinyl)-2,6-diazaspiro[3.4]octan-2-yl)-2-propen-1-one], the IC50 is 0.882 µM against KRAS G12C, over 5 µM in assay [1] and over 5 µM in assay [2].

In the case of `C=CC(=O)N1CC2(CCN(c3nc4c(c(-c5cccc6cccc(C)c56)n3)OCCC4)C2)C1` [Example 1-42, 1-(6-(4-(8-methyl-1-naphthalenyl)-7,8-dihydro-6H-pyrano[3,2-d]pyrimidin-2-yl)-2,6-diazaspiro[3,4]octan-2-yl)-2-propen-1-one], the IC50 against KRAS G12C is 0.456 µM; in assay [1] it was 5.92 µM; in assay [2], 22.8 µM.

For the compound `C=CC(=O)N1CC2(CCN(c3nc4c(F)cccc4c(-c4c(C)ccc5[nH]ncc45)c3C#N)CC2(F)F)C1` [Example 1-43, 2-(5,5-difluoro-2-(2-propenoyl)-2,7-diazaspiro[3.5]nonan-7-yl)-8-fluoro-4-(5-methyl-1H-indazol-4-yl)-3-quinolinecarbonitrile], the IC50 at KRAS G12C stood at 0.858 µM; in assay [1], 2.16 µM; in assay [2], 6.25 µM.

In the case of `C=CC(=O)N1CC2(CCN(c3nc4c(F)cccc4c(-c4c(C)ccc5[nH]ncc45)c3C#N)C2=O)C1` [Example 1-44, 8-fluoro-4-(5-methyl-1H-indazol-4-yl)-2-(5-oxo-2-(2-propenoyl)-2,6-diazaspiro[3,4]octan-6-yl)-3-quinolinecarbonitrile], the IC50 against KRAS G12C was determined as 6.83 µM; in assay [1], 6.4 µM; in assay [2], 12.5 µM.

Turning to `C=CC(=O)N1CC2(CCN(c3nc4cc(OC)ccc4c(-c4c(C)ccc5[nH]ncc45)c3C#N)C2)C1` [Example 1-45, 7-methoxy-4-(5-methyl-1H-indazol-4-yl)-2-(2-(2-propenoyl)-2,6-diazaspiro[3.4]octan-6-yl)-3-quinolinecarbonitrile], the values for the IC50 (at KRAS G12C; in assay [1]; in assay [2]) were 0.032 µM, 0.332 µM and over 5 µM, respectively.

With `Cc1ccc2[nH]ncc2c1-c1c(C#N)c(N2CCC3(CN(C(=O)/C=C/CN(C)C)C3)C2)nc2c(F)cccc12` [Example 1-46, 2-(2-((2E)-4-(dimethylamino)-2-butenoyl)-2,6-diazaspiro[3.4]octan-6-yl)-8-fluoro-4-(5-methyl-1H-indazol-4-yl)-3-quinolinecarbonitrile], the half-maximal inhibitory concentration (IC50) came to 1.53 µM against KRAS G12C, 2.02 µM in assay [1] and 6.25 µM in assay [2].

Turning to `C=CC(=O)N1CC2(CCN(c3cn4ncnc4c(-c4c(C)ccc5[nH]ncc45)c3C#N)C2)C1` [Example 1-48, 8-(5-methyl-1H-indazol-4-yl)-6-(2-(2-propenoyl)-2,6-diazaspiro[3.4]octan-6-yl)[1,2,4]triazolo[1,5-a]pyridine-7-carbonitrile], the values for the IC50 (on KRAS G12C; in assay [1]; in assay [2]) were 0.554 µM, over 5 µM and over 5 µM, respectively.

On to `C=CC(=O)N1CC2(CCN(c3nc4c(F)cccc4c(-c4c(C)ccc5[nH]ncc45)c3C#N)C2CF)C1` (stereo not drawn) [Example 1-49, 8-fluoro-2-(5-(fluoromethyl)-2-(2-propenoyl)-2,6-diazaspiro[3.4]octan-6-yl)-4-(5-methyl-1H-indazol-4-yl)-3-quinolinecarbonitrile], for which the IC50 was 0.124 µM on KRAS G12C, 24.6 µM in assay [1] and 13.4 µM in assay [2].

Take `C=CC(=O)N1CC2(CCN(c3nc4c(ccn4C)c(-c4c(C)ccc5[nH]ncc45)c3C#N)C2)C1` [Example 1-50, 1-methyl-4-(5-methyl-1H-indazol-4-yl)-6-(2-(2-propenoyl)-2,6-diazaspiro[3.4]octan-6-yl)-1H-pyrrolo[2,3-b]pyridine-5-carbonitrile]: the concentration for half-maximal inhibition (IC50) at KRAS G12C was 0.498 µM; in assay [1] it was over 5 µM; in assay [2], over 5 µM.

With `C=CC(=O)N1CC2(CCN(c3nc4c(N5CCCC5)ccn4c(-c4c(C)ccc5[nH]ncc45)c3C#N)C2)C1` [Example 1-52], the IC50 against KRAS G12C worked out at 0.244 µM; in assay [1], 1.89 µM; in assay [2] it was 39 µM.
